Measured values reported in US20250017940A1, “SELECTIVE PEPTIDOMIMETIC MODULATORS OF CAV2.2 (N-TYPE) VOLTAGE-GATED CALCIUM CHANNELS AND USES THEREOF” (New York University, priority 2023, published 2025).

How the values were obtained:
[1] = tested on: Na+ channels; experiment: Whole-cell patch-clamp, total Na+ currents in DRG neurons; type: cell-based, rat
Protocol: Recordings were obtained from acutely dissociated DRG neurons as described earlier (Bellampalli et al., 2019). Patch-clamp recordings were performed at room temperature (22-24° C.). Currents were recorded using an EPC 10 Amplifier-HEKA (HEKA Elektronik, Ludwigshafen, Germany) linked to a computer with Patchmaster software. DRG neurons were incubated overnight (˜16-24 hours) with 20 μM of CBD3063.
For Na^+ current (INa^+) recordings, the external solution contained (in mM): 130 NaCl, 3 KCl, 30 tetraethylammonium chloride, 1 CaCl2, 0.5 CdCl2, 1 MgCl2, 10 D-glucose, and 10 HEPES (pH 7.3 adjusted with NaOH, and mOsm/L=324). Patch pipettes were filled with an internal solution containing (in mM): 140 CsF, 1.1Cs-EGTA, 10 NaCl, and 15 HEPES (pH 7.3 adjusted with CsOH, and mOsm/L=311). Peak Na^+ current was acquired by applying 150-millisecond voltage steps from −70 to +60 mV in 5-mV increments from a holding potential of −60 mV to obtain the current-voltage (I-V) relation.
Normalization of currents to each cell's capacitance (pF) was performed to allow for collection of current density data. For I-V curves, functions were fitted to data using a non-linear least squares analysis. I-V curves were fitted using double Boltzmann functions:
Activation curves were obtained from the I-V curves by dividing the peak current at each depolarizing step by the driving force according to the equation: G=I/(Vmem-Erev), where I is the peak current, Vmem is the membrane potential and Erev is the reversal potential. The conductance (G) was normalized against the maximum conductance (Gmax). For total and the different subtypes of Ca^2+ currents, steady-state inactivation (SSI) curves were obtained by applying an H-infinity protocol that consisted of 1.5-seconds conditioning pre-pulses from −100 to +30 mV in 10-mV increments followed by a 20-millisecond test pulse to +10 mV. For Na^+ currents, SSI curves were obtained by applying an H-infinity protocol that consisted of 1-second conditioning pre-pulses from −120 to +10 mV in 10-mV increments followed by a 200-millisecond test pulse to +10 mV. Inactivation curves were obtained by dividing the peak current recorded at the test pulse by the maximum current (Imax). Activation and SSI curves were fitted with the Boltzmann equation.

[2] = tested on: CRMP2; experiment: Immunoblot of CRMP2 phosphorylation in CAD cells; type: cell-based, mouse; details: overnight incubation of CBD3063 (20 µM)
Protocol: Mouse neuron derived Cathecholamine A differentiated CAD cells (ECACC Cat #08100805, RRID: CVCL_0199) were grown in standard cell culture conditions, 37° C. in 5% (vol/vol) CO2. The cells were maintained in DMEM/F12 media supplemented with 10% (vol/vol) FBS (HyClone) and 1% penicillin/streptomycin sulfate from 10,000 μg/mL stock.
Indicated samples were loaded on 4-20% Novex gels (cat. no. XP04205BOX; Thermo Fisher Scientific, Waltham, MA). Proteins were transferred to preactivated PVDF membranes for 1 hour at 100 V using TGS [25 mM Tris, pH 8.5, 192 mM glycine, 0.1% (mass/vol) SDS], 20% (vol/vol) methanol as transfer buffer (0.45 μm; Cat #IPVH00010; Millipore Sigma, St. Louis, MO). After transfer, the membranes were blocked at room temperature for 1 hour with TBST (50 mM Tris·HCl, pH 7.4, 150 mM NaCl, 0.1% Tween 20) with 5% (mass/vol) nonfat dry milk, and then incubated overnight at 4° C. separately with indicated primary antibodies, β111-Tubulin (Cat #G7121; Promega, Madison, WI), CRMP2 (Cat #C2993; Sigma-Aldrich, St. Louis, MO), Cav2.2 (Cat #TA308673; Origene, Rockville, MD), CRMP2 pSer522 (Cat #CP2191; ECM Biosciences, Versailles, KY), and CRMP2 pThr514 (Cat #PA5-110113; Invitrogen, Waltham, MA), in TBST, 5% (mass/vol) BSA. For examining the effect of CBD3063 on CRMP2 phosphorylation state, CAD cells were treated overnight with vehicle (0.1% DMSO) or CBD3063 (20 μM) and the next day cells were lysed using RIPA buffer. Approximately 40 μg of total proteins were loaded on an SDS-PAGE and then transferred to polyvinylidene difluoride membranes and blocked at room temperature for 1 hour. Primary antibodies used for probing were CRMP2 (Cat #C2993, Sigma-Aldrich, St Louis, MO), CRMP2 pThr514 (Cat #PB-043, Kinasource, Dundee, Scotland, United Kingdom), CRMP2 pSer522 (Cat #CP2191, ECM Biosciences, Versailles, KY), and CRMP2 pT555 (Cat #CP2251, ECM Biosciences, Versailles, KY).

[3] = tested on: rat model of spared nerve injury (SNI); experiment: Spared nerve injury (SNI) model, mechanical allodynia (von Frey paw withdrawal threshold); type: in vivo
Protocol: Rats were anesthetized with ketamine/xylazine 80/12 mg/kg intraperitoneally (i.p.) (Sigma-Aldrich, St. Louis, MO), and their head was placed in a stereotaxic frame. The cisterna magna was exposed and incised. As previously reported, an 8-cm catheter (PE-10; Stoelting, Wood Dale, IL) was implanted, terminating in the lumbar region of the spinal cord (Yaksh & Rudy, 1976). Catheters were sutured (using 3-0 silk sutures) into the deep muscle and externalized at the back of the neck. Autoclips were used to close the skin, and other surgeries were performed after a 5- to 7-day recovery period.
The neuropathic pain model induced by spared nerve injury (SNI) in rats was performed as previously described. Adult male rats (250 g, Envigo, Placentia, CA) were anesthetized with isoflurane (5% induction, 2% maintenance in 2 L/min air), and skin on the lateral surface of the left hind thigh was incised. Then, the biceps femoris muscle was dissected to expose the three terminal branches of the sciatic nerve. The common peroneal and tibial branches were tightly ligated with 4-0 silk and axotomized 2.0 mm distal to the ligation. Closure of the incision was made in two layers. The muscle was sutured once with 5-0 absorbable suture; skin was autoclipped. Animals were allowed to recover for 7 days before any testing. […]
Mechanical allodynia was assessed by measuring rats' paw withdrawal threshold in response to probing with a series of fine calibrated filaments (von Frey, Stoelting, Wood Dale, IL). Rats were placed in suspended plastic cages with wire mesh floor, and each von Frey filament was applied perpendicularly to the plantar surface of the paw. The “up-and-down” method (sequential increase and decrease of the stimulus strength) was used to determine the withdrawal threshold Dixon's nonparametric method was used for data analysis, as described by Chaplan et al., 1994. Data were expressed as the mean withdrawal threshold.

[4] = 20 μM overnight, mean ± SEM (n cells)
[5] = single intrathecal 0.3 μg/kg, 7 days after SNI, male rats

## CC(=O)N[C@@H]1CCCN(C(=O)NCCCNc2ccccn2)C1 [CBD3063, (3R)-3-acetamido-N-[3-(pyridin-2-ylamino)propyl]piperidine-1-carboxamide]
[1]; 20 μM overnight (DMSO: −455.7±78.70)
  peak Na+ current density: −455.0±60.79 pA/pF
[1]; [4]
  Na+ currents, activation V1/2: −21.738 ± 0.852 (12) mV
  Na+ currents, activation k (slope factor): 4.749 ± 0.744 (12)
  Na+ currents, inactivation V1/2: −32.552 ± 2.084 (12) mV
  Na+ currents, inactivation k (slope factor): −12.003 ± 1.936 (12)
[2]
  expression of phosphorylated CRMP2 at site 514 (GSK-3β): no differences
  expression of phosphorylated CRMP2 at site 522 (Cdk5): no differences
  expression of phosphorylated CRMP2 at site 555 (RhoK): no differences
[3]; repeated i.t. 0.3 μg/kg once a day for 14 days
  tolerance (loss of antinociception): without any tolerance
[3]; repeated i.t. 0.3 μg/kg, rats with chronic neuropathic pain
  duration of reversal of mechanical allodynia with repeated intrathecal dosage: > 14 days
[3]; repeated i.t. injection 0.3 μg/kg once a day for 14 days (DMSO: 3.37±0.86)
  area under the curve of paw withdrawal threshold: 47.26±8.22
[3]; single i.t. injection 0.3 μg/kg, 0.5 to 36 hours (DMSO: 7.650±0.84)
  area under the curve of paw withdrawal threshold: 57.05±3.84
[3]; [5]
  duration of reversal of mechanical allodynia: up to 36 hours
  start of reversal of mechanical allodynia post-injection: 60 min
